The values below are quoted from earlier work in publication PMC5571359, “Screening the Medicines for Malaria Venture Pathogen Box across Multiple Pathogens Reclassifies Starting Points for Open-Source Drug Discovery” (Antimicrobial Agents and Chemotherapy, 2017).

pEC50, pIC50: −log10 of the molar value.

For one series, the system named is HepG2. Particulars: HepG2; ref PBox supporting information; cited from earlier work.
Turning to `Nc1ncnc2c1c(Cc1cccc3ccccc13)nn2CC1CCNCC1` [MMV676182], the “HepG2 PBox CC20” value is above 80 µM.

In the case of `CC(C)C(Oc1cccc2ccccc12)C(=O)O` (centres unmarked) [MMV676191], the “HepG2 PBox CC20” value is above 80 µM.

For the compound `CC(C)(C)n1nc(Cc2cccc3ccccc23)c2c(N)ncnc21` [MMV676599], the “HepG2 PBox CC20” value is 19 µM.

Regarding `CNCCC(Oc1ccc(C(F)(F)F)cc1)c1ccccc1` (centres unmarked) [MMV001561], the “HepG2 PBox CC20” value was 9.0 µM.

Turning to `Nc1ncnc2c1ncn2C[C@@H](O)[C@@H](O)C(=O)O` [MMV689255], the “HepG2 PBox CC20” value is above 80 µM.

The same series, now with this note: HepG2 CC20; ref Pathogen Box supporting information; cited from earlier work.
As to `O=C(Nc1nnc(S)s1)c1cc(Br)ccc1Cl` [MMV676492], the “HepG2 PBox CC20 μMc” value is above 80 µM.

The same series, now with this note: cited from earlier work.
Turning to `O=C1O[C@@H](COc2ccon2)CN1c1cc(F)c(C2=CCN(Cc3ccccc3)CC2)c(F)c1` [MMV687813], the CC50 was 30.4 µM.

In the case of `CN1CCC[C@@H]1CCO[C@](C)(c1ccccc1)c1ccc(Cl)cc1` [MMV637229, clemastine, reference compound], the “HepG2 PBox CC20 μMc” value was 9.3 µM.

Take `O=C1O[C@@H](CO)CN1c1cc(F)c(C2=CCN(Cc3ccccc3)CC2)c(F)c1` [MMV687729]: the CC50 is 38.8 µM.

Take `COC(=O)C1=C(C)NC(C)=C(C(=O)OC(C)C)C1c1cccc2nonc12` (centres unmarked) [MMV001493]: the “HepG2 PBox CC20 μMc” value is 66 µM.

Still in this series, the particulars now being: read-out: HepG2 PBox CC50 µM; HepG2 cytotoxicity; ref PBox supporting information; cited from earlier work.
For the compound `COc1ccc(-c2cc(NC(=O)c3ccc(F)cc3Cl)ccc2OC)cc1` [MMV676526], the CC50 is above 100 µM.

Take `CC(C)n1ncc2c(C(=O)NCC(c3cccs3)N3CCOCC3)cc(-c3ccccc3)nc21` (centres unmarked) [MMV676406]: the CC50 is 58 µM.

Take `O=C(Nc1nnc(-c2ccc(Cl)s2)o1)c1ccc(Cl)s1` [MMV676501]: the CC50 was 50.1 µM.

As to `Cc1cc(OCC(=O)NCc2ccccc2)c2cc(Br)ccc2n1` [MMV687747], the CC50 was 31 µM.

Turning to `CCCCc1ccc(C(=O)Nc2nccc3ccccc23)nc1` [MMV687254], the CC50 was 73.8 µM.

For the compound `COc1ccc2nc(C)cc(OCC(=O)Nc3ccccc3OC)c2c1` [MMV687188], the CC50 is 57.4 µM.

With `O=C(c1cc2ccccc2o1)N1CCN(Cc2ccc3c(c2)OCO3)CC1` [MMV676520], the CC50 is above 100 µM.

As to `CCCc1ccc(S(=O)(=O)Nc2ccc(CN3CCN(CC4CC4)CC3)cc2)cc1` [MMV688125], the CC50 was 17.7 µM.

For `COc1cccc(OCC(=O)c2ccc(Br)cc2)c1` [MMV676379], the CC50 is above 100 µM.

For `CC1=NN(c2nc3ccccc3s2)C(=O)C1Cc1cccc2ccccc12` (centres unmarked) [MMV676558], the CC50 was 21.9 µM.

As for `Brc1c(-c2ccc3c(c2)OCO3)nc2ncccn12` [MMV676377], the CC50 is above 100 µM.

Take `COc1ccc(Cn2cnc3c(-c4ccco4)nc(Cl)nc32)cc1` [MMV687170]: the CC50 is above 100 µM.

In the case of `c1coc(CNc2nc(N3CCCCC3)nc3ccccc23)c1` [MMV676401], the CC50 was 18.6 µM.

With `N#Cc1ccc(-c2ccc(OCC(N)=O)cc2)cc1` [MMV053220], the CC50 was above 100 µM.

`Cc1cc(C)cc(COc2ccc3c(C)c(CCC(=O)O)c(=O)oc3c2C)c1` [MMV676476]: the CC50 is above 100 µM.

As for `COC(=O)c1c(NC(=O)c2c(F)c(F)c(F)c(F)c2F)sc2c1CCCCC2` [MMV461553], the CC50 is 7.5 µM.

Take `Nc1ncnc2c1ncn2[C@@H]1O[C@H](COS(=O)(=O)NC(=O)c2ccccc2O)[C@@H](O)[C@H]1O` [MMV687700]: the CC50 is above 100 µM.

As to `CCOc1ccc(OCC(=O)Nc2cc(C)cc(C)c2)cc1` [MMV676470], the CC50 is above 100 µM.

In the case of `O=C(C1CCN(c2nnc(-n3cccc3)s2)CC1)N1CCC(Cc2ccccc2)CC1` [MMV676478], the CC50 is above 100 µM.

Regarding `O=C(Nc1cccnc1)c1c(O)c2cccc3c2n(c1=O)CC3` [MMV676395], the CC50 was above 100 µM.

As to `CCCn1c(CNc2ccccc2O)nc2ccccc21` [MMV676445], the CC50 was 84.1 µM.

As for `Cc1cccc(Cn2ccc(NC(=O)c3ccc4c(c3)OCO4)n2)c1` [MMV676386], the CC50 was above 100 µM.

In the case of `Cc1cc(C)c2cc(C(=O)NC3CCCCCCC3)[nH]c2c1` [MMV687146], the CC50 was above 100 µM.

`O=C(Nc1nnc(-c2ccc(Cl)cc2)o1)c1cccc(C(F)(F)F)c1` [MMV102872]: the CC50 was 9 µM.

Take `O=C(CCC1CCCCC1)Nc1cccc(-c2nnc(-c3ccco3)o2)c1` [MMV676589]: the CC50 was above 100 µM.

Consider `CC1COC2(CCN(c3nc(=O)c4cc(C(F)(F)F)cc([N+](=O)[O-])c4s3)CC2)O1` (centres unmarked) [MMV676603], for which the CC50 is above 100 µM.

For `Cc1nnc(NCc2cccc(Cl)c2)c2ccccc12` [MMV676555], the CC50 was 76 µM.

For the compound `CC(=O)NCC1CN(c2ccc(-c3ccc(CNCc4cn[nH]n4)cc3)c(F)c2)C(=O)O1` (centres unmarked) [MMV688327], the CC50 was above 100 µM.

Regarding `NC(=O)c1cc(Br)ccc1OCCOc1ccccc1` [MMV687243], the CC50 is above 100 µM.

For the compound `Cc1ccc2nc(Cl)c(CNCc3cccs3)cc2c1` [MMV676439], the CC50 is above 100 µM.

For `Cc1ccc(NC(=O)CC2COc3ccccc3O2)cc1Cl` (centres unmarked) [MMV676431], the CC50 was 66.7 µM.

Regarding `CC(C)(C(=O)Nc1ccc(F)cc1)n1cc(-c2ccccc2F)cn1` [MMV687239], the CC50 was above 100 µM.

As for `N#Cc1nc(-c2ccccc2F)oc1NCCc1ccccc1` [MMV676384], the CC50 was above 100 µM.

As for `CCC(Sc1nc2ccccc2o1)C(=O)Nc1nnc(C)s1` (centres unmarked) [MMV611037], the CC50 was above 100 µM.

On to `Cc1nc2ccccn2c1C(=O)NCc1ccc(Cl)cc1` [MMV012074], for which the CC50 is above 100 µM.

For the compound `CCc1nc2ccc(Cl)cn2c1C(=O)NCc1ccc(N2CCC(c3ccc(OC(F)(F)F)cc3)CC2)cc1` [MMV687696], the CC50 is above 100 µM.

On to `O=C(NC1CCCCC1)N1CCN(Cc2ccc3c(c2)OCO3)CC1` [MMV676444], for which the CC50 was above 100 µM.

Consider `CC1(COc2ccc(N3CCC(Oc4ccc(OC(F)(F)F)cc4)CC3)cc2)Cn2cc([N+](=O)[O-])nc2O1` (centres unmarked) [MMV688262], for which the CC50 is 72.5 µM.

As to `O=C(c1[nH]nc2c1CCCC2)N1CCN(Cc2ccc3c(c2)OCO3)CC1` [MMV676389], the CC50 was above 100 µM.

Consider `Nc1c2c(nc3sc4c(c13)CCCC4)CCCC2` [MMV676588], for which the CC50 was 34.9 µM.

Turning to `N#Cc1nc(-c2ccccc2)oc1S(=O)(=O)c1ccc(Cl)cc1` [MMV676412], the CC50 was 2.2 µM.

For `FC(F)(F)c1nnc2ccc(Cl)nn12` [MMV069458], the CC50 was above 100 µM.

`COc1cc(C(F)(F)F)nc2ccc(C)c(N)c12` [MMV047015]: the CC50 was above 100 µM.

Turning to `O=C(NCc1cc(Cl)cc(Cl)c1)c1c(C(F)(F)F)nc2ccccn12` [MMV687699], the CC50 is 38.3 µM.

With `CCc1c(C)nc(-n2nc(C)cc2NC(=O)c2ccccc2SC)[nH]c1=O` [MMV676477], the CC50 is 1.3 µM.

Regarding `Cc1cc(Cl)ccc1NC(=O)CCc1ccc(S(=O)(=O)NCC(C)C)cc1` [MMV161996], the CC50 was above 100 µM.

Still in this series, the particulars now being: read-out: HepG2 PBox CC50; HepG2; ref PBox supporting information; cited from earlier work.
`CC(C)(C)C(=O)N(CCCCCCN1C[C@H](O)[C@@H](O)[C@H](O)[C@H]1CO)C1CCCCCC1` [MMV688543]: the CC50 was above 50 µM.

In the case of `OC[C@H]1O[C@@H](n2c3ccc(Cl)cc3c3c(-c4cc5ccccc5o4)ncnc32)C(O)[C@H]1O` (some centres unmarked) [MMV688921], the CC50 is 10 µM.

As to `CNc1snc(C)c1C(=O)NCCOc1ccc(OC)cc1` [MMV688554], the CC50 was above 100 µM.

As to `COC(=O)c1ccc(F)cc1NS(=O)(=O)c1cccc(-c2cnn(Cc3ccccc3)c2)c1` [MMV688350], the CC50 is 10 µM.

On to `CC(=O)NCC1CN(c2ccc(-c3ccc(CO)cc3)c(F)c2)C(=O)O1` (centres unmarked) [MMV688508], for which the CC50 is above 100 µM.

The same series, now with this note: ref Pbox supporting information; cited from earlier work.
With `COc1ccc(N(CCc2cccc(C)n2)C(C)=O)cc1` [MMV675995], the “HepG2 PBox CC20 μMc” value was above 80 µM.

With `CCCCc1ccc(NC(=O)Nc2ccc(O[C@H]3CCCC[C@@H]3N(C)c3ccccc3)c(F)c2)cc1` [MMV676063], the “HepG2 PBox CC20 μMc” value is 5.8 µM.

Consider `CC(C)(C)c1ccc(N[C@@H]2CCCC[C@H]2NC(=O)c2ccco2)cc1` [MMV675969], for which the “HepG2 PBox CC20 μMc” value is 35.9 µM.

Take `CC(=O)N(CCN(C(=O)c1ccc(F)cc1)c1ccccc1)c1ccccc1` [MMV676064]: the “HepG2 PBox CC20 μMc” value is 39 µM.

As for `Nc1ncc(-c2ccc(C(F)(F)F)nc2)cc1-c1ccc(C(F)(F)F)nc1` [MMV668727], the “HepG2 PBox CC20 μMc” value is above 80 µM.

As for `COc1cccn2c(C(=O)N3CCCCC3)c(C(F)(F)F)nc12` [MMV1110498], the “HepG2 PBox CC20 μMc” value was above 80 µM.

As for `Cn1ncc2c(N3CCOCC3)nc(NCCc3c[nH]c4ccccc34)nc21` [MMV676382], the “HepG2 PBox CC20 μMc” value was 4.6 µM.

On to `Cc1ccccc1C(=O)N1N=C(Nc2ccccc2)SC1(C)C` [MMV688771], for which the “HepG2 PBox CC20 μMc” value is 8 µM.

With `Cc1cc(OCC(=O)Nc2ccc(C(C)C)cc2)n(C)c(=O)c1C#N` [MMV1198433], the “HepG2 PBox CC20 μMc” value was above 80 µM.

Take `COC(=O)c1c(NC(=O)c2cc3ccccc3oc2=O)sc2c1CCN(Cc1ccccc1)C2` [MMV676480]: the “HepG2 PBox CC20 μMc” value was 12.3 µM.

Consider `O=C(c1ccc(F)cc1)N(CCNc1ccccc1)c1ccccc1` [MMV676204], for which the “HepG2 PBox CC20 μMc” value is 18.5 µM.

`Cc1nn(C(=O)Nc2cccc(C(F)(F)F)c2)c(C)c1Sc1ncccn1` [MMV688552]: the “HepG2 PBox CC20 μMc” value was 30.7 µM.

For a further series, the system named is P. falciparum ABS. To be noted: ChEMBL Data, NITD; read-out: NITD (ref 94) EC50; cited from earlier work.
`Cc1cc(NC(=O)c2ccc(S(=O)(=O)N(Cc3ccccc3)C(C)C)cc2)no1` [MMV007133]: the pEC50 was 5.57.

The series is the same for the next values; noted with them: ChEMBL Data, TCMDC; read-out: TCMDC (ref 93) EX50; cited from earlier work.
As to `CCN(CC)CCCN1CCN(C(=O)c2cccc(-c3noc(C(F)(F)F)n3)c2)CC1` [MMV022236], the pEC50 was 6.82.

Turning to `Cc1cc(NC(=O)c2ccc(S(=O)(=O)N(Cc3ccccc3)C(C)C)cc2)no1` [MMV007133], the pEC50 is 6.07.

Still in this series, the particulars now being: ChEMBL Data; P. falciparum; read-out: NITD (ref 94) EC50; cited from earlier work.
Consider `CCCNC(=O)N1CCC2(CC1)CC(=O)c1cc(C)ccc1O2` [MMV085230], for which the pEC50 is 6.06.

The series is the same for the next values; noted with them: P. falciparum 3D7; ref PBox supporting information; read-out: Pf 3D7 Pbox IC50; cited from earlier work.
In the case of `CCCNC(=O)N1CCC2(CC1)CC(=O)c1cc(C)ccc1O2` [MMV085230], the pIC50 (in general, −log10 of the IC50, conventionally taken in molar units) was 5.69.

Still in this series, the particulars now being: Pf 3D7; ref Pathogen Box supporting information; read-out: Pf 3D7 Pbox IC50; cited from earlier work.
For the compound `CCN(CC)CCCN1CCN(C(=O)c2cccc(-c3noc(C(F)(F)F)n3)c2)CC1` [MMV022236], the pIC50 is 6.72.

On to `Cc1cc(NC(=O)c2ccc(S(=O)(=O)N(Cc3ccccc3)C(C)C)cc2)no1` [MMV007133], for which the pIC50 is 6.01.
